We go through seven compounds from patent US20160339026A1, “TOPICAL COMPOSITIONS COMPRISING MODULATORS OF TRPM8” (Senomyx, Inc., priority 2015, published 2016).

pEC50: −log10 of the molar value. Like-named read-outs stand apart in the source and are kept apart here. Some results are limits rather than exact numbers.

Test [1] is described as follows: Sensory study of topically applied Compound 101. The test is classed as in vivo, human. The procedure: The response of subjects to topically applied Compound 101 was assessed. Subjects were exposed to a solid formulation of Compound 101 in small quantities. […] In another assessment, subjects were exposed to a dilute airborne microparticulate Compound 101.
In test [2] the target is T1, hTRPM8 (Homo sapiens, UniProt Q7Z2W7).
T1 construct: expressed in transfected cells
The test is described as follows: Cell line stably expressing hTRPM8, agonist assay, compounds of Formula (I). The class given is cell-based. Particulars: Table 1.7. An excerpt:
A mammalian cell line derivative which stably expresses hTRPM8 was used in biological assays in association with testing the present compounds with cool-tasting or -feeling properties (Servant et al. US 2007/0259354 A1 and references cited therein). […] The present compounds have shown strong activity as agonists of hTRPM8. Assay results for compounds are illustrated in Table 1.1 below. Specifically, the Examples listed in Table 1.1, i.e., Compounds A1 to Compounds U10 are the specific compounds above that fall within Formula (I).

The target of test [3] is T1, hTRPM8. The note with it: Table 1.8; according to WO2011/061330 A2 E Table C 3-14; cited from earlier work.

T1 sequence (Q7Z2W7 whole entry): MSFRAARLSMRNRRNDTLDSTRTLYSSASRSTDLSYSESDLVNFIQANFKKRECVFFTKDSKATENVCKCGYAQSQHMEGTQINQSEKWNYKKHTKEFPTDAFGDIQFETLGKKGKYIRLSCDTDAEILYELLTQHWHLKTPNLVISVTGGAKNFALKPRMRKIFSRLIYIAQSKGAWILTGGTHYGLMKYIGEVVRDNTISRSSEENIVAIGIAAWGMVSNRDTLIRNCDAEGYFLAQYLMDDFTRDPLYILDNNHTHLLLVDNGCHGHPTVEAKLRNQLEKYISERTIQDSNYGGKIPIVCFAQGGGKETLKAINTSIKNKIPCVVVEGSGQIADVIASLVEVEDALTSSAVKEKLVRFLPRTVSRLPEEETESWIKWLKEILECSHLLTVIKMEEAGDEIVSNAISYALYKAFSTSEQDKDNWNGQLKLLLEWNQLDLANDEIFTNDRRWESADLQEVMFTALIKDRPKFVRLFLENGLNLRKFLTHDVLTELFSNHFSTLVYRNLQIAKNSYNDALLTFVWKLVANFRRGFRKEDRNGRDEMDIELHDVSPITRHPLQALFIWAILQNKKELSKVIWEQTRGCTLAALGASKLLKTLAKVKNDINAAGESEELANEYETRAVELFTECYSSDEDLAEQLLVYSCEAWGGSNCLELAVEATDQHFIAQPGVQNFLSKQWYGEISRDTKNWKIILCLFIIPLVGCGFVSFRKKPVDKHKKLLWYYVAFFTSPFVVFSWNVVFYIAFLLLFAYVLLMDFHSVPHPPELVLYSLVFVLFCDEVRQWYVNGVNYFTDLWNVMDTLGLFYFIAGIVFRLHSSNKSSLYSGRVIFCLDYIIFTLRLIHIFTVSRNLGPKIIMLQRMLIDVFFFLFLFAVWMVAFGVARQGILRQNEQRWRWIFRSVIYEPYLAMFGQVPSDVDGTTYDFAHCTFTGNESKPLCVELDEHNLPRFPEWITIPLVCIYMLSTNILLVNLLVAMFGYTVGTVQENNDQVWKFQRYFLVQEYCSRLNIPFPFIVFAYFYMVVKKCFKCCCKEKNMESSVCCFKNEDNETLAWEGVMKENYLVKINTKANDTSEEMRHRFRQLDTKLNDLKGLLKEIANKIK

In the case of `Cc1ccc(OCC(=O)N(Cc2cccs2)c2ccn[nH]2)cc1` [Compound 101], the “Sensation reported by subjects” value in test [1] (exposure to a solid formulation in small quantities) was “all subjects reported a “tingling” and “cooling” sensation”; in test [1] (exposure to dilute airborne microparticulate compound) it was “exhibited a “cooling smell” and induced “tingling sensation” on the skin”.
The pEC50 is −log10 of the EC50, conventionally taken in molar units. `CCN(Cc1ccccc1)C(=O)COc1ccccc1` [drawing 56 R=H R1=Ethyl Ar=Phenyl]: on hTRPM8 [2], the pEC50 is 5.04 and the “EC50 Ratio (WS-3)” value is recorded as 0.5.
`CCN(Cc1ccccc1)C(=O)C=Cc1ccc2c(c1)OCO2`: the pEC50 on hTRPM8 [3] is 5.82.
For `O=C(COc1ccc(Br)cc1)N(Cc1ccccc1)c1ccccn1` [drawing 56 R=4-Br R1=2-Pyridyl Ar=Phenyl], on hTRPM8 [2], the pEC50 is 4.81 and the “EC50 Ratio (WS-3)” value was 0.2.
The compound `Cc1ccc(OCC(=O)N(C)Cc2ccccc2)cc1` [drawing 56 R=4-Me R1=Methyl Ar=Phenyl] showed a pEC50 on hTRPM8 [2] below 4.00.
For `Cc1ccc(OCC(=O)N(Cc2ccccc2)c2ccccn2)cc1` [drawing 56 R=4-Me R1=2-Pyridyl Ar=Phenyl], at hTRPM8 [2], the pEC50 was 5.33 and the “EC50 Ratio (WS-3)” value is given as 0.6.
For the compound `CCN(Cc1ccccc1)C(=O)COc1ccc(C)cc1` [drawing 56 R=4-Me R1=Ethyl Ar=Phenyl], on hTRPM8 [2], the negative logarithm of the EC50 (pEC50) was 6.11 and the “EC50 Ratio (WS-3)” value is 4.2.
